The text below walks through data of article PMC12214536 (Nature Communications, 2025).

Like-named read-outs stand apart in the source and are kept apart here.

Data set [1] deals with CrzA:GFP. Type of data set: cell-based, Aspergillus fumigatus. To be noted: 15 min.
The subject of data set [2] is ΔsltA CrzA:GFP. Type of data set: cell-based, Aspergillus fumigatus. To be noted: 15 min.
Data set [3] has as its system A. fumigatus h2A::mRFP strain. The data set can be described thus: h2A::mRFP fluorescence, apoptosis-like cell death marker. Type of data set: cell-based, Aspergillus fumigatus. To be noted: H2O2 10 mM, COL 10 or 20 μM, CAS 0.03 or 0.2 μg/mL, or CAS with COL; 1 h.
Data set [4] deals with A. fumigatus conidia. The data set can be described thus: Fungicidal activity: CFU on drug-free MM after 48 h with compound + CAS. The class given is cell-based, Aspergillus fumigatus. Particulars: 0.2 μg/mL CAS, then CFU on compound-free medium, n = 3.
In data set [5] the test system is A. fumigatus conidia in A549 cells. The data set can be described thus: A549 human lung epithelial cells killing assay. Type of data set: cell-based, Aspergillus fumigatus.
For data set [6], the system named is A. fumigatus. Type of data set: cell-based, Aspergillus fumigatus. Particulars: 58 PKI at 20 µM alone or with COL 2.5 µM; 48 h, 37 °C.
The test system of data set [7] is HepG2 liver cells. Nature of the data set: HepG2 cytotoxicity, Alamar blue. The class given is cell-based, human. To be noted: COL 0, 20 and 40 µM + CAS 50 μg/mL; topotecan positive control; 48 h; n = 6. A general note: Alamar Blue is a resazurin reagent that responds to reducing activity.
The test system of data set [8] is A. fumigatus mito::GFP germlings. Type of data set: cell-based, Aspergillus fumigatus.
For data set [9], the system named is A. fumigatus wild-type mycelia. Type of data set: cell-based, Aspergillus fumigatus. To be noted: n = 9.
Data set [10] relates to A. fumigatus ΔsltA. Type of data set: cell-based, Aspergillus fumigatus.
In data set [11] the test system is A. fumigatus ΔcalA. Type of data set: cell-based, Aspergillus fumigatus.
For data set [12], the system named is A. fumigatus ΔcrzA. Type of data set: cell-based, Aspergillus fumigatus.
Data set [13] deals with A. fumigatus (Af293) infection. The class given is in vivo, Caenorhabditis elegans.
Data set [14] deals with A. fumigatus ΔsltA ΔcrzA. The class given is cell-based, Aspergillus fumigatus.
Data set [15] has as its system A. fumigatus wild-type (p)agsA::mluc. The class given is cell-based, Aspergillus fumigatus. To be noted: CAS 0.05 and 0.125 µg/mL; COL 50 and 80 µM; or combination; 16 h at 35 °C.
In data set [16] the test system is SltA. The class given is cell-based, Aspergillus fumigatus.

Turning to `[Ca+2].[Cl-].[Cl-]` [CaCl2], the “increase of CrzA:GFP translocation to the nucleus” value in data set [1] is reported as “about 4 fold”. In addition, in data set [2], the “increase of CrzA:GFP localization to the nucleus” value was “about 4 fold”.
`OO` [H2O2]: the “mRFP fluorescence of h2A::mRFP germlings” value in data set [3] was “complete loss of red fluorescence”.
On to `COC(=O)C1=C(C)NC(C)=C(C(=O)OC(C)(C)CN(C)CCC(c2ccccc2)c2ccccc2)C1c1cccc([N+](=O)[O-])c1` (centres unmarked) [LER, lercanidipine], for which the “lowest concentration with 100% fungicidal effect combined with CAS” value in data set [4] is 3.95 µg/mL.
In the case of `C[C@@H](c1ncncc1F)[C@](O)(Cn1cncn1)c1ccc(F)cc1F` [VOR, voriconazole], in data set [5] (VOR 0.5 μg/mL, COL 20 and 40 μM, CAS 50 μg/mL, or COL + CAS, MOI 1:10, 24 h, n = 6), the “A. fumigatus conidial killing” value is given as 85%.
With `Cn1cc(C2=C(c3cn(C4CCN(Cc5ccccn5)CC4)c4ccccc34)C(=O)NC2=O)c2ccccc21` [enzaustarin, enzastaurin], the “potentiation of COL activity (metabolic activity)” value in data set [6] was “potentiated COL activity”.
As for `CC[C@@]1(O)C(=O)OCc2c1cc1n(c2=O)Cc2cc3c(CN(C)C)c(O)ccc3nc2-1` [topotecan], the “toxicity to HepG2 cells (cell viability, Alamar blue)” value in [7] is given as “very high toxicity”.
Regarding caspofungin, in [8], the “germlings with mitochondrial fragmentation” value is 35%. For the same compound, the “mRFP fluorescence of h2A::mRFP germlings” value in data set [3] is listed as “no differences in mRFP fluorescence”. Besides, the “reduction of total ATP compared with the control” value in [9] is on record as “about 25%”. Besides, in data set [10], the “growth of ΔsltA compared with the wild-type strain” value is “comparable growth with the wild-type”. The “growth of ΔcalA compared to wild-type” value in [11] is given as “significantly better growth”. Further, the “growth of ΔcrzA compared to wild-type” value in data set [12] was “significantly better growth”. Besides, in data set [13] (25 °C), the “survival of infected animals over 3 days” value is “significantly improved survival”.
As for colistin, the “lowest concentration with 100% fungicidal effect combined with CAS” value in data set [4] is 10 µM. Besides, the “germlings with mitochondrial fragmentation” value in data set [8] stood at 20%. In data set [3], the “mRFP fluorescence of h2A::mRFP germlings” value is reported as “no differences in mRFP fluorescence”. The “reduction of total ATP compared with the control” value in data set [9] is recorded as “about 25%”. In [10], the “effect of Ca2+ addition on ΔsltA growth in the presence of COL” value is reported as “rescue ΔsltA growth” and the “growth of ΔsltA compared with the wild-type strain” value is on record as “significantly more sensitive to COL”. Moreover, in data set [14], the “sensitivity of ΔsltA ΔcrzA compared with ΔsltA” value is “as sensitive to COL and COL with CAS as ΔsltA alone”. Further, the “luminescence readings compared with no compound controls” value in data set [15] is “about 2 fold”. For the same compound, the “increased expression of SltA compared to non-exposure” value in data set [16] is listed as “about 4 fold”. Further, in data set [1], the “increase of CrzA:GFP translocation to the nucleus” value is listed as “about 4 fold”. In data set [5] (COL 80 µM vs COL 80 µM + CAS 50 µg/mL), the “A. fumigatus conidial killing, COL alone vs combination” value was “same level of conidial killing than the combination of COL 80 µM + CAS 50 µg/mL”. In data set [13] (in vivo), the “survival of infected animals over 3 days” value is recorded as “no impact on C. elegans survival”.
